Data from patent US8618095B2 (Rigel Pharmaceuticals, Inc., priority 2010, dated 2013).
Counter-ions that a name gives are not always drawn.

tested on: Human mast cells (CHMC); assay: LD Tryptase release assay in CHMC (mast cell activation induced by FcγR cross-linking); type: cell-based; conditions: Homo sapiens, Mast cell, anti-IgG stimulation, activity of tryptase released upon degranulation
Method in brief: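 Mast cells derived from CD38-negative progenitors were preincubated 1 h at 37 °C with compound in HEPES-buffered saline (pH 7.4, 0.1% BSA, compound diluted in buffer with 2% MeOH/1% DMSO). Cells were then stimulated 60 min with anti-human IgG (final 1 μg/mL). Released tryptase was measured on Z-Ala-Lys-Arg-AMC (30 min, room temperature, 355/460 nm) to give the IC50.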

Compound	IC50 [nM]
CC1(C)Oc2ccc(Nc3nc(Nc4ccc(N5CCOCC5)c(OC(F)F)c4)ncc3F)nc2NC1=O [Compound 25, N4-(2,2-dimethyl-3,4-dihydro-3-oxo-2H-pyrido[3,2-b][1,4]oxazin-6-yl)-5-fluoro-N2-[3-difluoromethoxy-4-morpholinophenyl]-2,4-pyrimidinediamine]	1000 to 100000
CC1(C)Oc2ccc(Nc3nc(Nc4ccc(N5CCOC5=O)nc4)ncc3F)nc2NC1=O [Compound 72, N4-(2,2-dimethyl-3,4-dihydro-3-oxo-2H-pyrido[3,2-b][1,4]oxazin-6-yl)-5-fluoro-N2-[6-(2-oxooxazolidin-3-yl)pyridin-3-yl]-2,4-pyrimidinediamine]	100 to 500
CC1(C)Oc2ccc(Nc3nc(Nc4ccc(N5CCOCC5)cc4)ncc3F)nc2NC1=O [Compound 1, N4-(2,2-dimethyl-3,4-dihydro-3-oxo-2H-pyrido[3,2-b][1,4]oxazin-6-yl)-5-fluoro-N2-(4-morpholinophenyl)-2,4-pyrimidinediamine]	< 100
CC1(C)Oc2ccc(Nc3nc(Nc4ccc(N5CCC(N6CCOCC6)CC5)nc4)ncc3F)nc2NC1=O [Compound 60, N4-(2,2-dimethyl-3,4-dihydro-3-oxo-2H-pyrido[3,2-b][1,4]oxazin-6-yl)-5-fluoro-N2-[6-(4-morpholinopiperidin-1-yl)pyridin-3-yl]-2,4-pyrimidinediamine]	100 to 500
Cc1ccc(Nc2ncc(F)c(Nc3ccc4c(n3)NC(=O)C(C)(C)O4)n2)cn1 [Compound 76, N4-(2,2-dimethyl-3,4-dihydro-3-oxo-2H-pyrido[3,2-b][1,4]oxazin-6-yl)-5-fluoro-N2-[6-methylpyridin-3-yl]-2,4-pyrimidinediamine]	100 to 500
O=C1COc2ccc(Nc3nc(Nc4ccc(N5CCO[C@@H](CO)C5)cc4)ncc3F)nc2N1 [Compound 127, N4-(3,4-dihydro-3-oxo-2H-pyrido[3,2-b][1,4]oxazin-6-yl)-5-fluoro-N2-[4-((2-hydroxymethyl)morpholino)phenyl]-2,4-pyrimidinediamine]	< 100
O=C1COc2ccc(Nc3nc(Nc4ccc(N5C[C@@H]6C[C@H]5CO6)cc4)ncc3F)nc2N1 [Compound 37, N4-(3,4-dihydro-3-oxo-2H-pyrido[3,2-b][1,4]oxazin-6-yl)-5-fluoro-N2-[4-((1S,4S)-5-oxa-2-aza-bicyclo[2.2.1]heptan-2-yl)phenyl]-2,4-pyrimidinediamine]	100 to 500
CN(C[C@H]1CCCO1)c1ccc(Nc2ncc(F)c(Nc3ccc4c(n3)NC(=O)CO4)n2)cn1 [Compound 110, N4-(3,4-dihydro-3-oxo-2H-pyrido[3,2-b][1,4]oxazin-6-yl)-5-fluoro-N2-[6-(((R)-methyl(tetrahydrofuran-2-yl)methyl)amino)pyridin-3-yl]-2,4-pyrimidinediamine]	1000 to 100000
CC1(C)Oc2ccc(Nc3nc(Nc4ccc(N5CCC6(CCCO6)CC5)cc4)ncc3F)nc2NC1=O [Compound 156, N4-(2,2-dimethyl-3,4-dihydro-3-oxo-2H-pyrido[3,2-b][1,4]oxazin-6-yl)-5-fluoro-N2-[4-(1-oxa-8-azaspiro[4.5]decan-8-yl)phenyl]-2,4-pyrimidinediamine]	100 to 500
CC1(C)Oc2ccc(Nc3nc(Nc4ccc(NC5CCOCC5)nc4)ncc3F)nc2NC1=O [Compound 134]	< 100
C[C@H]1CN(c2ccc(Nc3ncc(F)c(Nc4ccc5c(n4)NC(=O)CO5)n3)cn2)[C@@H](C)CO1 (racemic) [Compound 104, rac-N4-(3,4-dihydro-3-oxo-2H-pyrido[3,2-b][1,4]oxazin-6-yl)-N2-[6-(2,5-dimethylmorpholino)pyridin-3-yl]-5-fluoro-2,4-pyrimidinediamine]	100 to 500
[2H]C1([2H])OC([2H])([2H])C([2H])([2H])N(c2ccc(Nc3ncc(F)c(Nc4ccc5c(n4)NC(=O)CO5)n3)cn2)C1([2H])[2H] [Compound 106, N4-(3,4-dihydro-3-oxo-2H-pyrido[3,2-b][1,4]oxazin-6-yl)-5-fluoro-N2-[6-(2,2,3,3,5,5,6,6-d8-morpholino)pyridin-3-yl]-2,4-pyrimidinediamine]	< 100
Cc1cc(Nc2ncc(F)c(Nc3ccc4c(n3)NC(=O)CO4)n2)cnc1N1CCOCC1 [Compound 11, N4-(3,4-dihydro-3-oxo-2H-pyrido[3,2-b][1,4]oxazin-6-yl)-5-fluoro-N2-[5-methyl-6-morpholinopyridin-3-yl]-2,4-pyrimidinediamine]	< 100

The remaining lines, values ahead:

IC50 [nM]	Compound
< 100	C[C@@H]1COCCN1c1ccc(Nc2ncc(F)c(Nc3ccc4c(n3)NC(=O)C(C)(C)O4)n2)cn1 [Compound 50, N4-(2,2-dimethyl-3,4-dihydro-3-oxo-2H-pyrido[3,2-b][1,4]oxazin-6-yl)-5-fluoro-N2-[6-((3R)-3-methylmorpholino)pyridin-3-yl]-2,4-pyrimidinediamine]
100 to 500	C[C@H]1CN(c2ccc(Nc3ncc(F)c(Nc4ccc5c(n4)NC(=O)C(C)(C)O5)n3)cn2)CCO1 [Compound 94, N4-(2,2-dimethyl-3,4-dihydro-3-oxo-2H-pyrido[3,2-b][1,4]oxazin-6-yl)-5-fluoro-N2-[6-((2S)-2-methylmorpholino)pyridin-3-yl]-2,4-pyrimidinediamine]
100 to 500	C[C@H]1COCCN1c1ccc(Nc2ncc(F)c(Nc3ccc4c(n3)NC(=O)C(C)(C)O4)n2)cn1 [Compound 138, N4-(2,2-dimethyl-3,4-dihydro-3-oxo-2H-pyrido[3,2-b][1,4]oxazin-6-yl)-5-fluoro-N2-[6-((3S)-3-methylmorpholino)pyridin-3-yl]-2,4-pyrimidinediamine]
100 to 500	CC1(C)CN(c2ccc(Nc3ncc(F)c(Nc4ccc5c(n4)NC(=O)C(C)(C)O5)n3)cn2)CCO1 [Compound 8, N4-(2,2-dimethyl-3,4-dihydro-3-oxo-2H-pyrido[3,2-b][1,4]oxazin-6-yl)-5-fluoro-N2-[6-(2,2-dimethylmorpholino)pyridin-3-yl]-2,4-pyrimidinediamine]
100 to 500	CC1(C)CN(c2ccc(Nc3ncc(F)c(Nc4ccc5c(n4)NC(=O)CO5)n3)cn2)CCO1 [Compound 9, N4-(3,4-dihydro-3-oxo-2H-pyrido[3,2-b][1,4]oxazin-6-yl)-5-fluoro-N2-[6-(2,2-dimethylmorpholino)pyridin-3-yl]-2,4-pyrimidinediamine]

same assay, conditions: anti-IgG stimulation, activity of tryptase released upon degranulation

Compound	IC50 [nM]
CC1(C)CN(c2ccc(Nc3ncc(F)c(Nc4ccc5c(n4)N(COP(=O)(O)O)C(=O)CO5)n3)cc2)CCO1 [Compound 129, N4-(3,4-dihydro-4-[(dihydrogenphosphonoxy)methyl]-3-oxo-2H-pyrido[3,2-b][1,4]oxazin-6-yl)-5-fluoro-N2-[4-(2,2-dimethylmorpholino)phenyl]-2,4-pyrimidinediamine disodium salt]	1000 to 100000
CC1(C)Oc2ccc(Nc3nc(Nc4ccc(N5CCOCC5)c(F)c4)ncc3F)nc2N(COP(=O)(O)O)C1=O [Compound 113, N4-(2,2-dimethyl-3,4-dihydro-4-[(dihydrogenphosphonoxy)methyl]-3-oxo-2H-pyrido[3,2-b][1,4]oxazin-6-yl)-5-fluoro-N2-(3-fluoro-4-morpholinophenyl)-2,4-pyrimidinediamine disodium salt]	1000 to 100000
CC1(C)Oc2ccc(Nc3nc(Nc4ccc(N5CCOCC5)nc4)ncc3F)nc2NC1=O [Compound 142, N4-(2,2-dimethyl-3,4-dihydro-3-oxo-2H-pyrido[3,2-b][1,4]oxazin-6-yl)-5-fluoro-N2-[6-morpholinopyridin-3-yl]-2,4-pyrimidinediamine ethanesulfonic acid salt]	100 to 500
